Source: PMC7824769, “Identification of Small Molecules Blocking the Pseudomonas aeruginosa Type III Secretion System Protein PcrV” (Biomolecules, 2021)
Where “and” joins values, the source holds several entries; their conditions need not be identical. Identical values can stand only once.

Target: PcrV (Pseudomonas aeruginosa, UniProt G3XD49)
Experiment: SPR dose-response binding to immobilized PcrV (equilibrium analysis)
Method: The SPR screening was performed using the ProteOn^TM XPR36 Protein Interaction Array System (Bio-Rad Laboratories Inc., Hercules, CA, USA) with ProteOn GLH sensor chip (Bio-Rad Laboratories Inc., Hercules, CA, USA), and the results were analyzed with the ProteOn Manager software^TM (Bio-Rad Laboratories Inc., Hercules, CA, USA), Excel 2016 (Microsoft Office), and GraphPad Prism 7.04. All SPR experiments were performed at 25 °C. The multichannel module of the ProteOn system was in the vertical position during protein immobilization. The proteins were attached to the surface of a GLH sensor chip via amine coupling chemistry. A buffer scouting was performed to elucidate the optimal binding conditions of PcrV to the GLH sensor chip. First, channels 1–4 on the chip surface were activated using a 1:1 mixture of 40 mM 1-ethyl-3-(3-dimethylaminopropyl)carbodiimide hydrochloride (EDAC) (Bio-Rad Laboratories Inc., Hercules, CA, USA) and 10 mM N-hydroxysulfosuccinimide (sulfo-NHS, Bio-Rad Laboratories Inc., Hercules, CA, USA) for 300 s at 30 µL/min. Next, the proteins PcrV (33,398.6 Da, 6.37 mg/mL) was diluted in 10 mM NaOAc (pH 4, 4.5, and 5) to 0.05 mg/mL. PcrV was immobilized in channel 1–3 for 540 s at 30 µL/min. Channel 4 was flushed with 10 mM NaOAc (pH 5) for 540 s at 30 µL/min. As deactivating agent, a 1:1 mixture of 1 M ethanolamine and milli-Q filtered water was used. The deactivating solution was injected over all four channels for 300 s at 30 µL/min. Phosphate buffered saline with Tween (PBST; 10 mM phosphate buffer pH 7.4, 140 mM NaCl, 2.7 mM KCl, and 0.05% Tween 20) was used as the running buffer. The final amount of immobilized protein was measured in resonance units (RU) relative to the signal of the baseline prior activation. […] Immobilization of PcrV diluted in sodium acetate of pH 4.5 in one channel and of pH 5 in one channel were used in the beginning of the screening procedure (for plate 1–26). Since no difference was found between the two pH values, the PcrV protein was diluted in sodium acetate at pH 5 only (in two channels) from plate 27 and the rest of the screen. The immobilization procedure for the screening was performed as described above with the addition that the control protein carbonic anhydrase isoenzyme II from bovine erythrocytes (CAII, Sigma-Aldrich, article number 2522) was immobilized in one channel that was activated and deactivated as described above. CAII (1 mg/mL in PBS) was deactivated when diluted in 10 mM sodium acetate (pH 4) to 0.05 mg/mL. Immobilization level of the deactivated CAII was 18,000 RU. Deactivated CAII was used as a control protein according to the recommendations by the ProteOn manufacturer (Bio-Rad Laboratories Inc., Hercules, CA, USA). As running buffer, we employed PBS (pH 7.4, 0.05% Tween 20).
First, the PcrV protein was immobilized in two channels as described above while keeping a blank channel which was activated and deactivated as described above. The multichannel module of the ProteOn system was in horizontal position during the small molecule interaction studies. They were serially diluted to (400,) 200, 100, 50, 25, 12.5, 6.25, and (3.125); or 100, 50, 25, and 12.5 µM; or 100, 66.7, 44.4, 29.6, 19.7, and 13.2 µM in PBST (0.05% Tween 20) with a total concentration of 5% DMSO in 96-well plates. The running buffer was PBST (0.05% Tween 20) containing 5% DMSO. The analytes were injected at a flowrate of 100 µL/min, contact time was 60 s, and dissociation time was 60–120 s. Solvent correction was performed continuously during the experiments to account for bulk response of DMSO. The data was then baseline-aligned, processed by channel referencing with the blank channel, and solvent-corrected. The equilibrium dissociation constant (KD) values were determined from equilibrium analysis in the ProteOn Manager software^TM. Solubility problems frequently hampered KD determination since the small molecules could not always be dissolved in concentrations high enough to reach a plateau. […]

[1] = KD ± standard error of KD (Table S1), single experiment, standard error from ProteOn Manager software
[2] = SPR KD, equilibrium analysis, mean ± SD of three or more independent experiments, individual values where n < 3, 25 °C, PBST 5% DMSO

Sequence of PcrV (G3XD49 entry or part of it): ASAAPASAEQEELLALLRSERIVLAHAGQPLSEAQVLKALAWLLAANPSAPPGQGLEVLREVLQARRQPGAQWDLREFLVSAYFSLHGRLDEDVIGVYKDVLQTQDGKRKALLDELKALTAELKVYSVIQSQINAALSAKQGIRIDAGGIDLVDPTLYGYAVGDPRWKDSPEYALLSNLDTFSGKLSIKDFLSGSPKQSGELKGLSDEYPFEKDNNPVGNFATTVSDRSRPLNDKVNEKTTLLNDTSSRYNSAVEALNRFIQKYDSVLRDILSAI

Structure (SMILES)	Kd [1] [µM]	Kd [2]	Rmax (Table S1) (single experiment)	Kd (KD (equilibrium analysis, Figure 3B), one representative experiment, binding levels at 45-55 s) [µM]	Rmax (equilibrium analysis, Figure 3B) (one representative experiment) [RU]
Cc1c(Br)ccc(OC[C@@H]2C[C@@H]2C(=O)O)c1C (relative stereo) [Compound 33]	59.5 ± 11.1	~60 µM and 61 to 63 µM and 63 µM	76.8		
Cc1c(Br)ccc(OCCCC(=O)O)c1C [Compound H1]		< 150 µM and 106 µM		98.3	71.3
Cc1c(Br)ccc(OC[C@@H]2C[C@H]2C(=O)O)c1C (relative stereo) [Compound 32]	61.1 ± 16.9	~60 µM and 61 to 63 µM and 61 µM	81.8		
